Tests used:
CD4+CD25+ Treg cells [1] = experiment: T cell transfer model of colitis with ex vivo treated Treg; format: in vivo, C57BL/10.PL TCR alpha-/-beta-/- mice; conditions: inhibitor treated Treg
Procedure: (§1) Colitis was induced in C57BL/10.PL TCR alpha^−/−beta^−/− mice as described in Methods summary. 5a—numbers of mice were 5 (PBS), 8 (Teff), 7 (Teff/Treg control), 7 (Teff/Treg PKC-theta inhibitor). 5b-Histology slides of distal colon for the different groups. Normal histology is observed in PKC-theta treated mice. 5c, 5d-Freshly purified Treg from healthy donors and RA patients were treated or not with PKC-theta inhibitor for 30 min at 1 microM, washed three times, mixed with CD4^+CD25^− T cells at ratio 1:3, and plated on anti-CD3 mAb. The supernatants were analyzed for IFN-gamma after 24-48 hours. Combined data of three independent experiments are presented. % Treg-mediated inhibition was calculated as: 1−level of IFN-gamma in presence of Treg/level of IFN-gamma in absence of Treg)φ100%. P values were calculated by t-test.
Next, we determined the ability of PKC-theta inhibitor Ia to up-regulate Treg function in vivo using a colitis model in TCR alpha^−/−beta^−/− mice induced by transfer of effector CD4^+CD25^−CD45RB^+ Teff cells (F. Powrie, et al., J. Exp. Med. 1996, 183, 2669).
[…] Disease progression was monitored by body weight loss, diarrhea and histology analysis as previously described (F. Powrie, et al., J. Exp. Med. 1996, 183, 2669). P values were determined by Mann-Whitney test or two-tailed t-test by using the GraphPad Prism software (San Diego, Calif.).

PKC-theta = PKC-theta (Homo sapiens, UniProt Q04759); experiment: luciferase assay for inhibition of the kinase activity of PKC-theta; format: biochemical; conditions: luciferase assay of US 2005/0124640
Chain of PKC-theta (Q04759 whole entry): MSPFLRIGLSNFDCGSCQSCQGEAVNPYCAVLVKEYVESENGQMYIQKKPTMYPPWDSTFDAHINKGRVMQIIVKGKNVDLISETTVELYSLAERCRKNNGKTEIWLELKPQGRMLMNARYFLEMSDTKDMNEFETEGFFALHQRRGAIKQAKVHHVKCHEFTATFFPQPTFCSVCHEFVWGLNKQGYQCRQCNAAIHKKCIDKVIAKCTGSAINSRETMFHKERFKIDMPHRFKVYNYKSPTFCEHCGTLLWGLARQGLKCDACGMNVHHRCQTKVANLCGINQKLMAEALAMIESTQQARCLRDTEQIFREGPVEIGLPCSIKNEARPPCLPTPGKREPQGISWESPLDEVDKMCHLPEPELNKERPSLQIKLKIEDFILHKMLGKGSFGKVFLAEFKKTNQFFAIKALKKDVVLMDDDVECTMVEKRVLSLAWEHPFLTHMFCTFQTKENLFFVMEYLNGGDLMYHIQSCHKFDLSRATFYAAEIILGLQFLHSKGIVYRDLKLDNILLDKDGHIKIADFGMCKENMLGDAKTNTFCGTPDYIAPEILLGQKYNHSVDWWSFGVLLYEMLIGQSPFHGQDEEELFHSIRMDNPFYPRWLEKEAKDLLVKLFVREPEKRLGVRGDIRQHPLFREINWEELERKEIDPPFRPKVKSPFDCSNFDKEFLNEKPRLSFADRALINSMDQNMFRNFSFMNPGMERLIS
Procedure: The preparation of these compounds and the luciferase assay used to determine the IC50 for inhibition of the kinase activity of PKC-theta are described in US Patent Application Publication number 2005/0124640. For the in vitro and ex vivo assays above, compounds were dissolved in DMSO. T cells were pretreated with indicated concentrations of the inhibitors or DMSO control for 30 min at 37° C. and washed three times.

CD4+CD25+ Treg cells [2] = experiment: Treg/Teff co-culture on anti-CD3 mAb, IFN-gamma secretion by ELISA; format: cell-based, human
Procedure: (§2) Treg cells and CD4^+CD25^− Teff (non-Treg) cells were treated with Compound Ia at 0.001-1 microM (a-b) for 30 min, or at 1 microM for 0-60 min (c). Treated cells were mixed with CD4^+CD25^− T (Teff) cells at 1:9 ratio and plated on immobilized anti-CD3 mAb. The supernatants were analyzed for IFN-gamma after 24-48 hours (a and c). Cell proliferation was determined after 96 hours (b). Average of four different experiments is shown.
Treg were treated with 1 microM PKC-theta inhibitors with different IC50 values as indicated on graph. Treated cells were mixed with CD4^+CD25^− T (Teff) cells at 1:9 ratio and plated on immobilized anti-CD3 mAb. The supernatants were analyzed for IFN-gamma after 24-48 hours. An average of four different experiments is shown. As shown in the graph, the enhancement of suppressive effect on IFN-gamma secretion generally correlates with the potency of the inhibitors.
Treated Treg and non-Treg, or siRNA-transfected Treg were mixed with CD4^+CD25^− T (Teff) cells at 1:9 ratio and plated on immobilized anti-CD3 mAb. The supernatants were analyzed for IFN-gamma after 24-48 hours. An average of four different experiments is shown.
CD4^+CD25^+ regulatory T cells (Tregs) suppress the function of CD4^+ and CD8^+ effector cells (Teff) through an antigen receptor and cell contact mechanism. […] We investigated whether inhibition of PKC-theta may affect the suppressive function of human CD4^+CD25^+ Treg cells in vitro. For this purpose, we treated CD4^+CD25^+ Treg or CD4^+CD25^− Teff cells (Treg or non-Treg respectively in FIGS. 1a and 1b) with a specific PKC-theta inhibitor, namely, Compound Ia, washed and cultured the cells with untreated Teff cells in a ratio of 1:9 on stimulatory anti-CD3 antibodies. IFN-gamma secretion and cell proliferation were measured after 24 and 96 hours respectively. […] Moreover, the effect of PKC-theta inhibitor on Treg function was time-dependent; maximal levels of enhanced suppressive function were achieved after 30 min of Treg treatment with the compound (FIG. 1c).
(§3) CD4^+CD25^+ Treg and CD4^+CD25^− Teff cells were purified from the peripheral blood of healthy human donors or from 25 patients with Rheumatoid arthritis in different stages (accordingly to disease activity score (DAS)) as described in the literature M. L. Prevoo, et al., Arthritis and rheumatism, 1995, 38, 44; A. Zanin-Zhorov, et al., J. Clin. Invest, 2006, 116, 2022). […] Cytokine secretion was determined by ELISA as previously described A. Zanin-Zhorov, et al., ibid., 2006), using Human IFN-gamma Cytose™ (Biosource; Camarillo, Calif.). Proliferation was assessed by Alamar Blue™ assay (Invitrogen) as previously described (S. A. Ahmed, et al., J. immunological Methods, 1994, 170, 211-224). […]

CD4+CD25+ Treg cells [3] = experiment: Treg/Teff co-culture on anti-CD3 mAb, cell proliferation by Alamar Blue; format: cell-based, human; conditions: Treg treated 0.001-1 microM 30 min, washed, Treg/Teff 1:9, anti-CD3; proliferation after 96 h (FIG. 1b)
Procedure: as §2
CD4^+CD25^+ regulatory T cells (Tregs) suppress the function of CD4^+ and CD8^+ effector cells (Teff) through an antigen receptor and cell contact mechanism. […] IFN-gamma secretion and cell proliferation were measured after 24 and 96 hours respectively. […]
as §3

[4] = test system: Treg cells purified from RA patients; experiment: Suppression of IFN-gamma from autologous Teff by Treg purified from RA patients; format: cell-based, human; conditions: Treg from 25 RA patients, 1 microM 30 min, Treg/Teff 1:3, 24-48 h (FIG. 5d)
Procedure: as §1, with “t-test. […]” for “t-test.”
as §3, with “Calif.).” for “Calif.). Proliferation was assessed by Alamar Blue™ assay (Invitrogen) as previously described (S. A. Ahmed, et al., J. immunological Methods, 1994, 170, 211-224).”

Structure (SMILES): NC[C@H]1CC[C@H](CNc2nc(NCc3ccccc3OC(F)(F)F)ncc2[N+](=O)[O-])CC1 [Compound Ia]
- mice with normal weight gain and normal histology of the distal colon (CD4+CD25+ Treg cells [1]; 1:4 ratio of Treg/Teff): 7 of 8
- protection of the recipient mice from colitis (CD4+CD25+ Treg cells [1]; 1:4 ratio of Treg/Teff (FIGS. 5a and 5b)): ~100%
- IC50 (PKC-theta): 0.7 nM
- induction of suppressive activity in treated Teff (non-Treg) added to untreated responder Teff (CD4+CD25+ Treg cells [2]; CD4+CD25- Teff treated, 1:9 ratio (FIGS. 1a and 1b)): does not induce suppressive activity
- suppressive ability of Treg cells (IFN-gamma production by Teff) (CD4+CD25+ Treg cells [2]; Treg treated 0.001-1 microM 30 min, washed, Treg/Teff 1:9, anti-CD3, IFN-gamma after 24 h (FIG. 1a)): significantly up-regulated
- treatment time for maximal levels of enhanced suppressive function (CD4+CD25+ Treg cells [2]; Treg treated at 1 microM for 0-60 min, IFN-gamma readout (FIG. 1c)): 30 min
- ability of Treg cells to inhibit IFN-gamma secretion in Teff cells (CD4+CD25+ Treg cells [2]; treated or siRNA-transfected Treg, Treg/Teff 1:9, 24-48 h (FIG. 4)): increased
- suppressive ability of Treg cells (cell proliferation) (CD4+CD25+ Treg cells [3]): significantly up-regulated
- suppressive function of Treg cells purified from RA patients (IFN-gamma) [4]: significantly increased

Structure (SMILES): N[C@H]1CC[C@H](CNc2nc(NCc3ccccc3OC(F)(F)F)ncc2[N+](=O)[O-])CC1 [Ib]
- IC50 (PKC-theta): 1 nM

Structure (SMILES): O=[N+]([O-])c1cnc(SCc2ccccc2Cl)nc1NCC1CCNCC1 [Ic]
- IC50 (PKC-theta): 8 nM

Structure (SMILES): O=[N+]([O-])c1cnc(NCC2CCNCC2)nc1NCc1ccccc1OC(F)(F)F [Id]
- IC50 (PKC-theta): 300 nM

Structure (SMILES): N[C@H]1CC[C@H](CNc2nc(NCc3ccccc3OC(F)(F)F)ccc2[N+](=O)[O-])CC1 [Ie]
- IC50 (PKC-theta): 1000 nM
